# Experimental data published in patent publication US6852696B2, “Inhibitors of glycosaminoglycans” (The University of Texas System, priority 1999, dated 2005).
# Entries after “also recorded” stand apart in the source; their conditions may differ.
# Key:
# [1] = test system: Langerhans cells (LC); settings: co-pending application 60/126,475; cited from earlier work
# [2] = test system: B16-F10 melanoma cells; experiment: Experimentally induced lung metastasis of i.v. infused B16-F10 melanoma cells; format: in vivo, C57BL/6 mice; settings: simultaneous i.v. injection with B16-F10 cells
# Method: FIGS. 4A-C. Impact of Pep-1 on lung metastasis of melanoma. (FIG. 4A) B16-F10 melanoma cells were suspended (4×10^5 cells/ml) in PBS containing Pep-1 monomer (2 or 3 mg/ml) (circles) or 2% DMSO alone (triangles). C57BL/6 mice received i.v. injection of these cell suspensions (500 μl/animal) and were examined for survival. Data shown are the cumulative survival curves from four independent experiments (n=37 for Pep-1 and n=20 for PBS control). […] (FIG. 4B) B16-F10 melanoma cells (1×10^5 cells/animal) were s.c. injected into the back of C57BL/6 mice. Pep-1 or RP (40 μg/injection) was injected locally into the tumor inoculation sites 0. 3. and 6 days after tumor injection. Data shown are the means+/−s.e.m. (n=10) of tumor sizes and tumor weights measured 10 days after tumor inoculation. (FIG. 4C) B16-F10 melanoma cells (2×10^5 cells/well) were cultured in the presence of the indicated concentrations of Pep-1 (closed circles) or PR (open circles). Data shown are the means+/−s.e.m.(n=3) of ^3H-thymidine uptake at 24 hr.
# In the model, melanoma cells and Pep-1 (or random peptide control or PBS alone) were injected together intravenously into syngeneic C57BL/6 mice and lung metastasis was examined macroscopically and by following-up the survival of mice. […] The inventors will also examine the prophylactic and therapeutic potentials of multimeric Pep-1 formulations and other chemically modified Pep-1 derivatives using this animal model of melanoma metastasis.
# [3] = test system: HA; experiment: Adhesion of 35S-labeled BW5147 thymoma cells to HA-coated plates; format: cell-based; settings: 500 μg/ml pretreatment
# Method: FIGS. 1A-B. (FIG. 1A) ^35S-labeled BW5147 thymoma cells were incubated on HA-coated plates (0.1 μg/ml) that had been pretreated with the indicated peptides (500 μg/ml). Data shown are the means+/−S.D. of % binding from quadruplicate samples. (FIG. 1B) FITC-conjugated HA (0.3 μg/ml) was preincubation with the indicated peptide (500 μg/ml) and examined for binding to BW5147 thymoma cells. Data shown are the binding of FITC-conjugated HA in the presence of the indicated peptides (closed histograms) as compared to the background autofluorescence levels (open histograms).
# FIGS. 5A-C. Impact of Pep-1 on HA degradation products. […] After extensive wash, the amounts of remaining biotinylated HA on the plates were determined by addition of streptavidin-alkaline phosphatase followed by p-nitrophenyl phosphate substrate. The % HA digestion was calculated from the optical densities. The data shown are the means+/−s.e.m.from triplicate samples analyzed with a hyperbolic model. […] Results are expressed as the means+/−s.e.m.from triplicate samples.
# To test the impact of Pep-1 on HA degradation, the present inventors developed a 96 well-based assay in which biotinylated HA was immobilized onto the plates and treated with HAase. The amounts of HA that remained attached to the wells was then determined by addition of streptavidin-conjugated alkaline phosphatase (FIG. 5A).
sequence,measurement,setting,value
GAHWQFNALTVR [Pep-1],inhibition of sensitization phase / hapten-triggered LC migration,[1],blocking hapten-triggered migration of Langerhans cells
same,survival of recipient animals,[2],prolonged the survival of recipient animals significantly
same,survival of recipient animals,[2]; listed as Pep-1 monomer,Statistically significant difference (p<0.01 by the log-rank test)
same,extent of lung metastasis,[2]; vs RP control,reduced the extent of lung metastasis significantly
same,inhibition of BW5147 cell adhesion to HA substrate,[3],blocked BW5147 cell adhesion; also recorded: significant (p<0.01 by ANOVA) inhibition of cell adhesion
